Read-outs that look alike come from different tables or passages of the source.
What was measured:
[1] = test system: SUM-149 cells; assay: Reactive oxygen species (ROS) measurement, CellROX; assay type: cell-based, human; details: NAC 500 μM
[2] = test system: MDA-MB-231 cells; assay: Reactive oxygen species (ROS) measurement, CellROX; assay type: cell-based, human; details: NAC 500 μM
[3] = test system: MDA-MB-231; assay: Cytotoxicity of EP probes via CTG assay; assay type: cell-based, human; details: read-out: MDA-MB231 EC50
[4] = test system: HMEC; assay: Cytotoxicity of EP probes via CTG assay, normal cells; assay type: cell-based; details: 72 hr
[5] = test system: SUM-149; assay: Cytotoxicity of EP probes via CTG assay; assay type: cell-based, human
[6] = test system: T47D; assay: Cytotoxicity of EP probes via CTG assay; assay type: cell-based; details: 72 hr
[7] = test system: MDA-MB-231, SUM-149, T47D; assay: Cytotoxicity of EP analogues via CTG assay, comparison across cell lines; details: 72 hr
Procedure: To better understand the structure-activity-relationship of EP, its core was modified at the C3 position of the steroid backbone. […] Both normal cell lines HMEC and BJ cells were also evaluated to determine therapeutic index.
(§1) Either 1×10^3-4.8×10^3 or 4×10^2-1.2×10^3 cells were seeded to each well of 96- or 384-well white polystyrene flat-bottomed plates (3610 or 8804BC, Corning) in 100 μL or 30 μL media per well, respectively. The concentrations used were experimentally determined to ensure logarithmic growth during the duration of the experiment and prevent adverse effects on cell growth by DMSO exposure. The plates were incubated at 37° C. in 5% CO2 for 24 h before treatment. Stock solutions of test compounds (10 mM in DMSO) in nine 3-fold serial dilutions were dispensed via pintool (Biomek). The final concentration of DMSO was 0.3% (v/v) in each well. The plates were incubated for 72 h at 37° C. in 5% CO2 and then quenched with CellTiter-Glo® reagent (50 μL/well in 96-well plate, 30 μL/well in 384-well plate) at RT. The positive controls included staurosporine (10 μM), gambogic acid (10 μM), and a toxic quinoline generated in-house. Plates were then incubated at RT for 20 min and centrifuged at 1000 rpm for 1 min. The cytotoxicity assay was performed by using the CellTiterGlo Luminescent Cell Viability Assay kit (G7570, Promega, Madison, WI) according to the manufacturer's instructions. Luminescence was recorded in an Envision plate reader (Perkin Elmer).

[8] = test system: various breast cancer cell lines; assay: Cell viability assay, breast cancer cell line panel; assay type: cell-based
[9] = Solubility observations; assay type: physicochemical; details: DMSO
Procedure: One of the liabilities with EP is sharing its core with cholesterol, an amphipathic molecule with part-water soluble, part-water insoluble character. Thus, while able to readily cross the cell membrane, the ability to deliver the pure compound faces challenges. EP's solubility properties are poor in DMSO or water unless warmed up to 30° C. However, in this report, EP's derivative, EP sulfonamide, was soluble at 10 mM in DMSO. Thus, the generation of a selective anti-cancer compound with greater potency than EP, and ample therapeutic window when compared to BJ normal cells, was accomplished.

[10] = test system: BJ cells; assay: Cell viability assay in normal fibroblasts; details: at the concentrations tested
Procedure: The compounds' activity was also evaluated in human and murine leukemia (KOPN8, BCR-ABL, UoCB-1, SUP-B15, NALM06) cell lines. As a control, normal human skin fibroblasts (BJ) cells and non-cancerous mammary epithelial cells (MCF10A) were used.
Different concentrations of GLE-extracted bioactive chemical components were tested for 72-h treatment periods.
as §1, with “The cytotoxicity assay was performed by using the CellTiterGlo Luminescent Cell Viability Assay kit (G7570, Promega, Madison, WI) according to the manufacturer's instructions.” left out
For the CTG assay, 3 or 4 replicate assays were conducted for each experimental condition, and a minimum of 3 independent experiments were conducted for cellular assays. The mean luminescence of each experimental treatment group was normalized as a percentage of the mean intensity of untreated controls. EC50 values (μM) were calculated by Pipeline Pilot Software (Accelrys, Enterprise Platform, CA, USA). EC50 values (μM) from the viability assay were calculated from dose response curve-fitting via non-linear regression by using GraphPad Prism (Version 7.0 San Diego, CA). […]

[11] = test system: SUM-149 cells; assay: Cell viability assay (CellTiter-Glo or PI staining); assay type: cell-based, human
[12] = test system: MDA-MB-231 breast cancer cells; assay: De novo in-cell protein synthesis (click assay); assay type: cell-based, human; details: 2 h treatment; EP 20 μM
Procedure: First, 2.5×10^4 cells/well were seeded in 8-well μ-slides (Ibidi®, #80826) and incubated at 37° C. for 12 h. The cells were treated with vehicle, compounds Ganoderic acid A or EP, or cycloheximide (positive control) for 2 h to determine protein synthesis as nascent proteins generated using Biovision's EZClick™ Global Protein Synthesis Assay Kit, (#K715-100, Milpitas, CA). The assay includes a robust chemical method based on an alkyne containing o-propargyl-puromycin (OP-puro) probe, which stops translation by forming covalent conjugates with nascent polypeptide chains. Truncated polypeptides are rapidly turned over by the proteasome and can be detected based on the subsequent click reaction with a fluorescent azide. The reaction was conducted according to the manufacturer's protocol. Cells were imaged at 20× with a Nikon C2 scanning confocal microscope, and the whole image montage was quantified by using Gen5 Software and Lionheart™ FX Automated Microscope (BioTek, Winooski, VT).

[13] = test system: SUM-149 cells; assay: ApoTox-Glo Triplex assay (caspase 3/7); assay type: cell-based, human; details: SUM-149, 24 h
Procedure: (§2) Cells commonly fail to bypass the G1 phase of the cycle due to mutations or DNA damage, which can result in apoptosis. […] In addition, caspase 3/7 activity assays were performed as an alternate method of apoptosis detection.
(§3) Cells (9.5×10^4/well in 75 μL of fresh medium) were dispensed in 96-well black flat bottom (8807BC, Corning) plates. The cells were incubated for 12 h at 37° C. and then treated with compounds (25 μL) for 24 h. DMSO was used as a negative control, and staurosporine was used as the positive control. The experiment was stopped by adding the Viability/Cytotoxicity Reagent and briefly mixed by orbital shaking (300-500 rpm for ˜30 sec). Plates were incubated for 30 min at 37° C., and fluorescence was measured in an Envision plate reader at the following two wavelength sets: 400Ex/505Em (Viability) 485Ex/520Em (Cytotoxicity). Then, the Caspase-Glo® 3/7 Reagent was added; plates were mixed briefly by orbital shaking (300-500 rpm for ˜30 sec), followed by an additional 30 min incubation at RT. Then luminescence, which correlates with caspase 3/7 activation, was recorded with a plate reader to determine apoptosis induction.

[14] = test system: MDA-MB-231 cells; assay: ApoTox-Glo Triplex assay (caspase 3/7); assay type: cell-based, human; details: MDA-MB-231, 24 h
Procedure: as §2, §3

[15] = Homo sapiens, MDA-MB-231, 72 hr

Compound	EC50 [6] [µM]	EC50 ([3]; 72 hr) [µM]	EC50 [4] [µM]	cytotoxicity compared with parental compound 3 (in words) [7]	EC50 ([5]; 72 hr, read-out: SUM149 EC50) [µM]	other results
CC1=CC(=O)c2ccccc2C1=O [menadione, Menadione, reference compound]	–	–	–	–	–	reduction in ROS formation in the presence of NAC [1]: about 20%; reduction in ROS formation in the presence of NAC [2]: about 20%
CC(=O)O[C@H]1C(=O)[C@@]2(C)[C@H]([C@H](OC(=O)c3ccccc3)[C@]3(O)C[C@H](OC(=O)[C@H](O)[C@@H](NC(=O)c4ccccc4)c4ccccc4)C(C)=C1C3(C)C)[C@]1(OC(C)=O)CO[C@@H]1C[C@@H]2O [Taxol, reference compound]	–	–	–	–	–	EC50 [3, 15]: 2 µM; EC50 ([4]; Homo sapiens, HMEC): > 10 µM; EC50 ([5]; Homo sapiens, SUM149, 72 hr): 0.01 µM
CC(C)C(C)C=CC(C)C1CCC2C1(C)CCC1C23C=CC2(CC(OCP(=O)(O)O)CCC12C)OO3 (stereo not shown) [3g]	> 20	37	> 20	poor activity	5	–
CCCCCCCCCCCCCCCC(=O)O [palmitic acid]	–	–	–	–	–	activity at the tested concentrations in the evaluated cell lines [8]: did not show activity
C#CCCCC(=O)OC1CCC2(C)C3CCC4(C)C(C(C)C=CC(C)C(C)C)CCC4C34C=CC2(C1)OO4 (stereo not shown) [3j]	11	8	> 13	superior activity across cell lines	4	–
COc1cccc2c1C(=O)c1c(O)c3c(c(O)c1C2=O)C[C@@](O)(C(=O)CO)C[C@@H]3O[C@H]1C[C@H](N)[C@H](O)[C@H](C)O1 [Doxorubicin, reference compound]	–	–	–	–	–	EC50 [3, 15]: 1 µM; EC50 ([4]; Homo sapiens, HMEC): > 10 µM; EC50 ([5]; Homo sapiens, SUM149, 72 hr): 1 µM
CC(C)C(C)C=CC(C)C1CCC2C1(C)CCC1C23C=CC2(CC(OC(=O)CCCC(=O)O)CCC12C)OO3 (stereo not shown) [3i]	18	33	> 20	poor activity	5	–
CC(C)C(C)C=CC(C)C1CCC2C1(C)CCC1C23C=CC2(CC(OC(=O)Cn4cc(CNC(=O)c5ccc6c(c5)C(=O)OC65c6ccc(N(C)C)cc6Oc6cc(N(C)C)ccc65)nn4)CCC12C)OO3 (stereo not shown) [3l]	> 20	20	> 20	–	18	solubility properties (in words) ([9]; water or PBS): poor solubility properties and precipitated readily in DMSO or PBS
CC(C)C(C)C=CC(C)C1CCC2C1(C)CCC1C23C=CC2(CC(OC(=O)NS(=O)(=O)c4ccccc4)CCC12C)OO3 (stereo not shown) [EP sulfonamide, ergosterol peroxide sulfonamide]	–	–	–	–	–	cytotoxic effects in normal BJ cells [10]: minimal; solubility in DMSO [9]: ≥ 10 mM; EC50 ([11]; FIG. 10A, SUM-149 breast cancer cells, read-out: EC50, cancer cell viability of derivative): 12 µM
C[C@H](CC(=O)C[C@@H](C)[C@H]1C[C@H](O)[C@@]2(C)C3=C(C(=O)C[C@]12C)[C@@]1(C)CCC(=O)C(C)(C)[C@@H]1C[C@@H]3O)C(=O)O [GA-01, ganoderic acid A]	–	–	–	–	–	cytotoxic effects in normal BJ cells [10]: did not induce cytotoxic effects; de novo protein synthesis inhibition [12]: do not inhibit de novo protein synthesis; caspase 3/7 activity [13]: increase caspase 3/7 activity; caspase 3/7 activity [14]: increase caspase 3/7 activity
C#CCOC1CCC2(C)C3CCC4(C)C(C(C)C=CC(C)C(C)C)CCC4C34C=CC2(C1)OO4 (stereo not shown) [3e]	> 20	16	> 20	better activity	10	–
CCCCCOC(=O)Nc1nc(=O)n([C@@H]2O[C@H](C)[C@@H](O)[C@H]2O)cc1F [Capecitabin, reference compound]	–	5	10	–	5	–
CC(C)C(C)C=CC(C)C1CCC2C1(C)CCC1C23C=CC2(CC(OP(=O)([O-])OCC[N+](C)(C)C)CCC12C)OO3 (stereo not shown) [3h]	17	25	> 20	poor activity	21	–
CC(C)C(C)C=CC(C)C1CCC2C1(C)CCC1C23C=CC2(CC(=O)CCC12C)OO3 (stereo not shown) [3a]	10	7	> 13	improved activity	5	–
CC(C)C(C)C=CC(C)C1CCC2C1(C)CCC1C23C=CC2(CC(OC(=O)CCl)CCC12C)OO3 (stereo not shown) [3c]	> 20	> 20	> 20	promising activity against SUM-149 with little or no activity observed at the tested concentrations in MDA-MB-231 and T47D	5	–
CCOP(=O)(COC1CCC2(C)C3CCC4(C)C(C(C)C=CC(C)C(C)C)CCC4C34C=CC2(C1)OO4)OCC (stereo not shown) [3f]	> 20	9	> 20	improved activity	5	–
CC(C)C(C)C=CC(C)C1CCC2C1(C)CCC1C23C=CC2(CC(OC(=O)CN=[N+]=[N-])CCC12C)OO3 (stereo not shown) [3d]	> 20	> 20	> 20	promising activity against SUM-149 with little or no activity observed at the tested concentrations in MDA-MB-231 and T47D	10	–
CC(C)[C@@H](C)/C=C/[C@@H](C)[C@H]1CC[C@H]2C3=CC=C4C[C@@H](O)CC[C@]4(C)[C@H]3CC[C@]12C [ergosterol]	–	–	–	–	–	cytotoxic effects in normal BJ cells [10]: did not induce cytotoxic effects; EC50 ([8]; 72-h treatment): > 50 µM; cancer cell viability significantly reduced starting at ([8]; breast cancer cellular models, 72-h): 64 µM; concentration at which SUM-149 cell viability is significantly reduced ([11]; 72 h): 64 µM
